Source: the supplement of paper PMC10307832

Compound: Cn1nnc2c(C(N)=O)ncn2c1=O [Temozolomide] + COc1cccc2cc(-c3nc([C@H]4CC[C@H](C(=O)O)CC4)n4ncnc(N)c34)[nH]c12 [OSI-027] (partner 0.5 µM)
Experiment: relative viability (nuclei count vs DMSO), 5 days (fraction); higher = more cells survive
Conditions: first compound 0.2 µM
Method in brief: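 Nuclei were stained with Hoechst during a one-step fixation (final 0.05% Triton X-100, 1% formaldehyde, 1 ug/ml Hoechst) carried out 5 days after dosing, then counted on 4× images. The cells, lung cancer lines in 1536-well plates, had been dosed by pin tool the day after seeding with one drug alone or a fixed anchor-drug dose plus five library-drug doses (not always all listed) in √10 steps. Relative viability is the nuclei count in treated wells divided by that in vehicle wells, and each value is the median of duplicate plates.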

Row | Cell Line | relative viability
1 | 201T | 0.77
2 | A-427 | 0.481
3 | ABC-1 | 0.554
4 | BEN | 0.326
5 | CAL-12T | 0.728
6 | COR-L23 | 1.01
7 | COR-L 105 | 0.476
8 | ChaGo-K-1 | 0.623
9 | EKVX | 0.513
10 | EMC-BAC-2 | 0.454
11 | EPLC-272H | 0.257
12 | HARA | 0.318
13 | HCC-15 | 0.778
14 | HCC-44 | 0.682
15 | HCC-78 | 0.347
16 | HCC-366 | 0.865

Row | Cell Line | relative viability
17 | HCC-827 | 0.45
18 | HOP-62 | 1.06
19 | LC-2-ad | 0.782
20 | LCLC-97TM1 | 0.554
21 | LCLC-103H | 0.454
22 | LK-2 | 0.2
23 | LOU-NH91 | 0.494
24 | LU99A | 0.27
25 | LXF-289 | 0.772
26 | NCI-H23 | 0.547
27 | NCI-H441 | 0.597
28 | NCI-H522 | 0.723
29 | NCI-H1395 | 0.629
30 | NCI-H1650 | 0.638
31 | NCI-H2342 | 0.544
32 | SW 900 | 0.569

Same assay, conditions: first compound 0.6325 µM

Row | Cell Line | relative viability
33 | 201T | 0.716
34 | A-427 | 0.4
35 | ABC-1 | 0.513
36 | BEN | 0.289
37 | CAL-12T | 0.712
38 | COR-L23 | 0.714
39 | COR-L 105 | 0.781
40 | ChaGo-K-1 | 0.543
41 | EKVX | 0.669
42 | EMC-BAC-2 | 0.355
43 | EPLC-272H | 0.279
44 | H3255 | 0.656
45 | HARA | 0.656
46 | HCC-15 | 0.68
47 | HCC-44 | 0.425
48 | HCC-78 | 0.349
49 | HCC-366 | 0.856
50 | HCC-827 | 0.756
51 | HOP-62 | 0.854

Row | Cell Line | relative viability
52 | LC-2-ad | 0.917
53 | LCLC-97TM1 | 0.525
54 | LCLC-103H | 0.416
55 | LK-2 | 0.218
56 | LOU-NH91 | 0.729
57 | LU99A | 0.317
58 | LXF-289 | 0.863
59 | NCI-H23 | 0.682
60 | NCI-H441 | 0.85
61 | NCI-H522 | 0.729
62 | NCI-H1395 | 0.604
63 | NCI-H1623 | 0.462
64 | NCI-H1648 | 0.23
65 | NCI-H1650 | 0.788
66 | NCI-H1793 | 0.279
67 | NCI-H2170 | 0.825
68 | NCI-H2342 | 0.665
69 | SW 900 | 0.618

Same assay, conditions: first compound 2 µM

Row | Cell Line | relative viability
70 | 201T | 0.583
71 | A-427 | 0.507
72 | ABC-1 | 0.564
73 | BEN | 0.296
74 | CAL-12T | 0.914
75 | COR-L23 | 0.766
76 | COR-L 105 | 0.735
77 | ChaGo-K-1 | 0.685
78 | EKVX | 0.555
79 | EMC-BAC-2 | 0.369
80 | EPLC-272H | 0.295
81 | H3255 | 0.606
82 | HARA | 0.558
83 | HCC-15 | 0.683
84 | HCC-44 | 0.477
85 | HCC-78 | 0.362
86 | HCC-366 | 1.03
87 | HCC-827 | 0.8
88 | HOP-62 | 0.846

Row | Cell Line | relative viability
89 | LC-2-ad | 0.926
90 | LCLC-97TM1 | 0.571
91 | LCLC-103H | 0.481
92 | LK-2 | 0.214
93 | LOU-NH91 | 0.781
94 | LU99A | 0.321
95 | LXF-289 | 0.927
96 | NCI-H23 | 0.565
97 | NCI-H441 | 0.846
98 | NCI-H522 | 0.778
99 | NCI-H1395 | 0.686
100 | NCI-H1623 | 0.471
101 | NCI-H1648 | 0.262
102 | NCI-H1650 | 0.651
103 | NCI-H1793 | 0.27
104 | NCI-H2170 | 0.875
105 | NCI-H2342 | 0.618
106 | SW 900 | 0.47

Same assay, conditions: first compound 6.325 µM

Row | Cell Line | relative viability
107 | 201T | 0.769
108 | A-427 | 0.365
109 | ABC-1 | 0.517
110 | BEN | 0.283
111 | CAL-12T | 0.608
112 | COR-L23 | 0.814
113 | COR-L 105 | 0.742
114 | ChaGo-K-1 | 0.508
115 | EKVX | 0.686
116 | EMC-BAC-2 | 0.396
117 | EPLC-272H | 0.291
118 | H3255 | 0.569
119 | HARA | 0.439
120 | HCC-15 | 0.695
121 | HCC-44 | 0.494
122 | HCC-78 | 0.383
123 | HCC-366 | 0.879
124 | HCC-827 | 0.73
125 | HOP-62 | 0.773

Row | Cell Line | relative viability
126 | LC-2-ad | 0.825
127 | LCLC-97TM1 | 0.486
128 | LCLC-103H | 0.448
129 | LK-2 | 0.168
130 | LOU-NH91 | 0.756
131 | LU99A | 0.283
132 | LXF-289 | 0.76
133 | NCI-H23 | 0.59
134 | NCI-H441 | 0.523
135 | NCI-H522 | 0.665
136 | NCI-H1395 | 0.513
137 | NCI-H1623 | 0.388
138 | NCI-H1648 | 0.235
139 | NCI-H1650 | 0.596
140 | NCI-H1793 | 0.245
141 | NCI-H2170 | 0.575
142 | NCI-H2342 | 0.59
143 | SW 900 | 0.5

Same assay, conditions: first compound 20 µM

Row | Cell Line | relative viability
144 | 201T | 0.794
145 | A-427 | 0.299
146 | ABC-1 | 0.585
